Test results as given in patent US7510836B2, “Alpha arteether resistance domain” (priority 2003, dated 2009).

What was measured:
[1] = test system: E. coli DH5α; experiment: Phenotype of strain (resistance or sensitivity); assay type: cell-based, Escherichia coli; set-up: key to Phenotype: R: resistance; S: sensitivity; conditions: for Sensitivity or resistance of the strain (words): E.coli DH5a (gyrA 96; Asp87Asn)
Description: (§1) As a result of this mutation, the said strain is also resistant to a drug called nalidixic acid.
(§2) To ascertain the involvement of gyrA mutation, another E.coli strain NK 5819 which is also GyrA″ and nalidixic acid resistant was tested for arteether sensitivity. As expected, strain NK5819 was also sensitive only to a-isomer of arteether. […] The assays for arteether sensitivity was performed by the standard single disk diffusion method (Bauer et al, 1966). As a next step, we isolated gyrA mutants of E.coli strain CA 8000, which is otherwise Gyr+ and nalidixic acid sensitive. The gyrA mutants of CA8000 were isolated as nalidixic acid resistant colonies (20 ug/ml), after mutagenic treatment with NTG ([…]). The isolated CA8000 gyrA mutants were also sensitive only to a isomer of arteether. […] To define precisely the involvement of gyr genes only in the a-arteether sensitivity, we utilised two recombinant clones (pMK 90 and pMK47 containing functional gyr A and gyrB genes respectively) in trans-complementation assays. For this purpose, we mobilized the plasmid clones into the E.coli gyr mutant strains. The resulting transformants were now nalidixic acid sensitive and a-arteether resistant. This constituted the direct evidence supporting our observation that DNA gyrase enzyme alone is involved in conferring a-arteether sensitivity to E.coli strain. […] DNA gyrase enzyme is essential for the bacterial growth. This enzyme transiently breaks the DNA strands and introduces negative superhelical turns in an ATP-dependent process. The E.coli DNA gyrase enzyme is a tetramer with two subunits A and B. These two subunits are nalidixic acid and coumermycin sensitive respectively (U.S. Pat. No. 6,127,405 and a co-pending patent).
(§3) The strains of E coli of the investigation, their phenotypes in terms of a-arteether (resistance or sensitivity, superscript R or S) or antibiotic resistance or sensitivity, change in nucleotide position of the gyrase A gene leading to the phenotype, corresponding amino acid change in the protein and the position of amino acid change are being described. Always the phenotype a-arteether resistance is accompanied with quinolone or fluoroquinolone sensitivity and vice versa.

[2] = test system: E. coli ET8000; experiment: Phenotype of strain (resistance or sensitivity); assay type: cell-based, Escherichia coli; set-up: key: R: resistance; S: sensitivity; conditions: gyrA GAC-AAC(259), Asp-Asn 87
Description: as §3

[3] = test system: E. coli NK5819; experiment: Phenotype of strain (resistance or sensitivity); assay type: cell-based, Escherichia coli; set-up: key to Phenotype: R: resistance; S: sensitivity
Description: as §2, §3

[4] = test system: E. coli CA8001; experiment: Phenotype of strain (resistance or sensitivity); assay type: cell-based, Escherichia coli; set-up: key: R: resistance; S: sensitivity; conditions: gyrA GGT-TGT(241), Gly-Cys 81
Description: (§4) In order to develop an arteether resistant mutants from an arteether sensitive strains a reverse strategy was applied. Quinoline/fluoroquinolone (Q/FQs) resistant strains were developed spontaneously i.e. screening overnight log phase culture of the Quinolone/fluoroquinolone sensitive i.e. arteether resistant strain (E coli CA 8000) on the poison agar plate of the Q/FQs. The Q/FQ resistant mutants which appeared on the poison agar plates were first purified through single colony purification and then checked for their arteether sensitivity. These arteether sensitive mutants on the contrary when checked for their Q/Fqs resistance they show different level of Q/FQs resistance.
as §3

[5] = test system: E. coli CA8002; experiment: Phenotype of strain (resistance or sensitivity); assay type: cell-based, Escherichia coli; set-up: key: R: resistance; S: sensitivity; conditions: gyrA GGT-TGT(241), Gly-Cys 81
Description: as §4, §3

[6] = test system: E. coli CA8003; experiment: Phenotype of strain (resistance or sensitivity); assay type: cell-based, Escherichia coli; set-up: key: R: resistance; S: sensitivity; conditions: gyrA GAC-GGC(260), Asp-Gly 87
Description: as §4, §3

[7] = test system: E. coli CA8005; experiment: Phenotype of strain (resistance or sensitivity); assay type: cell-based, Escherichia coli; set-up: key: R: resistance; S: sensitivity; conditions: gyrA GAC-GGC(260), Asp-Gly 87
Description: as §4, §3

[8] = test system: E. coli CA8006; experiment: Phenotype of strain (resistance or sensitivity); assay type: cell-based, Escherichia coli; set-up: key: R: resistance; S: sensitivity; conditions: gyrA TCG-TTG(248), Ser-Leu 83
Description: as §4, §3

[9] = test system: E. coli CA8007; experiment: Phenotype of strain (resistance or sensitivity); assay type: cell-based, Escherichia coli; set-up: key: R: resistance; S: sensitivity; conditions: gyrA TCG-TTG(248), Ser-Leu 83
Description: as §4, §3

[10] = test system: E. coli CA8009; experiment: Phenotype of strain (resistance or sensitivity); assay type: cell-based, Escherichia coli; set-up: key: R: resistance; S: sensitivity; conditions: gyrA TCG-TTG(248), Ser-Leu 83
Description: as §4, §3

[11] = test system: E. coli CA8010; experiment: Phenotype of strain (resistance or sensitivity); assay type: cell-based, Escherichia coli; set-up: key: R: resistance; S: sensitivity; conditions: gyrA TCG-TTG(248), Ser-Leu 83
Description: as §4, §3

[12] = test system: E. coli CA8012; experiment: Phenotype of strain (resistance or sensitivity); assay type: cell-based, Escherichia coli; set-up: key: R: resistance; S: sensitivity; conditions: gyrA GGT-GAT(242), Gly-Asp 81
Description: as §4, §3

[13] = test system: E. coli mutant strain AR 9 CA8014; experiment: Phenotype of revertant (resistance or sensitivity); assay type: cell-based, Escherichia coli; set-up: key: R: resistance; S: sensitivity; conditions: gyrA AAC-GAC(259), Asn-Asp 87
Description: as §3
(§5) The commercially available strain E. coli DH5[…] (Stratagene, USA) is sensitive to […]-arteether but resistant to quinolone/fluoroquinolone due to a mutation at 87th aminoacid position of the gyr A protein (Aspartic acid of wild type is changed to Aspargine) with corresponding change in the codon GAC to AAC. This strain was used to screen […]-arteether resistant mutations. The observation was startling as the […]-arteether resistant mutants are the exact reversion at the 87th position of the aminoacid of gyrase A subunit i.e. Aspargine changed to aspartic acid, with corresponding change in the codon AAC to GAC.

[14] = test system: E. coli mutant strain Rev 4; experiment: Phenotype of revertant (resistance or sensitivity); assay type: cell-based, Escherichia coli; set-up: key: R: resistance; S: sensitivity; conditions: gyrA GAT-GGT(242), Asp-Gly 81
Description: as §3, §5

[15] = test system: E. coli mutant strain Rev 5; experiment: Phenotype of revertant (resistance or sensitivity); assay type: cell-based, Escherichia coli; set-up: key: R: resistance; S: sensitivity; conditions: gyrA GAT-GGT(242), Asp-Gly 81
Description: as §3, §5

[16] = test system: E. coli mutant strain Rev 6; experiment: Phenotype of revertant (resistance or sensitivity); assay type: cell-based, Escherichia coli; set-up: key: R: resistance; S: sensitivity; conditions: gyrA GAT-GGT(242), Asp-Gly 81
Description: as §3, §5

[17] = test system: E. coli mutant strain Rev. 1; experiment: Phenotype of revertant (resistance or sensitivity); assay type: cell-based, Escherichia coli; set-up: key: R: resistance; S: sensitivity; conditions: gyrA GAT-GGT(242), Asp-Gly 81
Description: as §3, §5

[18] = test system: E. coli mutant strain Rev. 2; experiment: Phenotype of revertant (resistance or sensitivity); assay type: cell-based, Escherichia coli; set-up: key: R: resistance; S: sensitivity; conditions: gyrA GAT-GGT(242), Asp-Gly 81
Description: as §3, §5

[19] = test system: E. coli mutant strain Rev. 3; experiment: Phenotype of revertant (resistance or sensitivity); assay type: cell-based, Escherichia coli; set-up: key: R: resistance; S: sensitivity; conditions: gyrA GAT-GGT(242), Asp-Gly 81
Description: as §3, §5

[20] = test system: E.coli strain MTCC 482 (GyrB, defective in DNA gyrase B subunit); experiment: Arteether sensitivity, single disk diffusion; assay type: cell-based, Escherichia coli; conditions: E.coli MTCC 482 (gyrB)
Description: as §2, with “This enzyme transiently breaks the DNA strands and introduces negative superhelical turns in an ATP-dependent process. The E.coli DNA gyrase enzyme is a tetramer with two subunits A and B. These two subunits are nalidixic acid and coumermycin sensitive respectively (U.S. Pat. No. 6,127,405 and a co-pending patent).” left out

[21] = test system: gyrA mutants of E.coli strain CA 8000 (nalidixic acid resistant colonies after NTG); experiment: Arteether sensitivity, single disk diffusion; assay type: cell-based, Escherichia coli; conditions: isolated CA8000 gyrA mutants
Description: as §2, with “This enzyme transiently breaks the DNA strands and introduces negative superhelical turns in an ATP-dependent process. The E.coli DNA gyrase enzyme is a tetramer with two subunits A and B. These two subunits are nalidixic acid and coumermycin sensitive respectively (U.S. Pat. No. 6,127,405 and a co-pending patent).” left out

[22] = test system: E.coli gyr mutant strains transformed with pMK 90 and pMK47 (functional gyr A and gyrB genes); experiment: Trans-complementation assay; assay type: cell-based, Escherichia coli; conditions: gyr mutant strains carrying pMK 90 / pMK47
Description: as §2, with “This enzyme transiently breaks the DNA strands and introduces negative superhelical turns in an ATP-dependent process. The E.coli DNA gyrase enzyme is a tetramer with two subunits A and B. These two subunits are nalidixic acid and coumermycin sensitive respectively (U.S. Pat. No. 6,127,405 and a co-pending patent).” left out

[23] = test system: E.coli strains which do not carry gyr mutation (wild type strains); experiment: Arteether sensitivity of strains without gyr mutation; assay type: cell-based, Escherichia coli
Description: as §1
To ascertain the involvement of gyrA mutation, another E.coli strain NK 5819 which is also GyrA″ and nalidixic acid resistant was tested for arteether sensitivity. As expected, strain NK5819 was also sensitive only to a-isomer of arteether. […] The assays for arteether sensitivity was performed by the standard single disk diffusion method (Bauer et al, 1966). As a next step, we isolated gyrA mutants of E.coli strain CA 8000, which is otherwise Gyr+ and nalidixic acid sensitive. The gyrA mutants of CA8000 were isolated as nalidixic acid resistant colonies (20 ug/ml), after mutagenic treatment with NTG ([…]). The isolated CA8000 gyrA mutants were also sensitive only to a isomer of arteether. […] To define precisely the involvement of gyr genes only in the a-arteether sensitivity, we utilised two recombinant clones (pMK 90 and pMK47 containing functional gyr A and gyrB genes respectively) in trans-complementation assays. For this purpose, we mobilized the plasmid clones into the E.coli gyr mutant strains. The resulting transformants were now nalidixic acid sensitive and a-arteether resistant. This constituted the direct evidence supporting our observation that DNA gyrase enzyme alone is involved in conferring a-arteether sensitivity to E.coli strain. […]

[24] = test system: E.coli strains which do not carry gyr mutation (wild type strains); conditions: U.S. Pat. No. 6,127,405; cited from earlier work
[25] = test system: gyr mutant strains of E.coli; conditions: U.S. Pat. No. 6,127,405; cited from earlier work
[26] = test system: malaria; conditions: cited from earlier work
[27] = cited from earlier work
[28] = cited from earlier work; remark: listed apart in the source

CCO[C@@H]1O[C@@H]2O[C@]3(C)CC[C@H]4[C@H](C)CC[C@@H]([C@H]1C)[C@@]24OO3 [a-arteether, α-arteether]
Phenotype ([1]; DH5α, gyrA GAC-AAC(259), Asp-Asn 87): S
Sensitivity or resistance of the strain (words) ([1]; listed as a isomer of arteether): able to inhibit the growth
Sensitivity or resistance of the strain (words) ([1]; listed as α-arteether): sensitive
Sensitivity or resistance of the strain (words) ([1]; listed as […]-arteether): sensitive
Phenotype [2]: S
Sensitivity or resistance of the strain (words) ([3]; E.coli NK 5819 (GyrA mutant)): sensitive
Phenotype ([3]; NK5819, gyrA GAC-TAC(259), Asp-Gly 87): S
Phenotype [4]: S
Phenotype [5]: S
Phenotype [6]: S
Phenotype [7]: S
Phenotype [8]: S
Phenotype [9]: S
Phenotype [10]: S
Phenotype [11]: S
Phenotype [12]: S
Phenotype [13]: R
Phenotype [14]: R
Phenotype [15]: R
Phenotype [16]: R
Phenotype [17]: R
Phenotype [18]: R
Phenotype [19]: R
Arteether sensitivity [20]: susceptible
Arteether sensitivity [21]: sensitive
Sensitivity or resistance of transformants [22]: resistant
Sensitivity or resistance [23]: invariably resistant
Inhibitory activity [24]: ineffective
Inhibitory activity [25]: inhibitory

C[C@@H]1CC[C@H]2[C@@H](C)C(=O)O[C@@H]3O[C@@]4(C)CC[C@@H]1[C@]32OO4 [Artemisinin, artemisinin]
Plasmodicidal property [26]: high plasmodicidal property
half-life [27]: short
Solubility in most aprotic solvents ([28]; aprotic solvents): readily soluble
Solubility in water and oil ([28]; water and oil): poorly soluble
